Assay results published in ChEMBL document CHEMBL5223113, “Several non-salt and solid thienopyridine derivatives as oral P2Y12 receptor inhibitors with good stability” (Bioorg Med Chem Lett, 2022).

Legend:
[1] = Toxicity in rat assessed as bleeding time by measuring ratio of ED200 to ED50 ratio by tail cutting assay; details: in vivo
[2] = Stability in human plasma assessed as compound remaining measured at 120 mins relative to control; type: ADME, cell-free; details: read-out: Stability
[3] = Toxicity in beagle dog assessed as emesis at 100 mg/kg/day oral gavage observed for 14 days; type: organism-based, Canis lupus familiaris; details: in vivo, 336 h, time 14 day
[4] = Stability in human plasma assessed as compound remaining measured at 240 mins relative to control; type: ADME, cell-free; details: read-out: Stability
[5] = Stability in human plasma assessed as compound remaining measured at 5 mins relative to control; type: ADME, cell-free; details: read-out: Stability
[6] = Toxicity in beagle dog assessed as ALP level at 100 to 300 mg/kg/day oral gavage observed for 14 days; type: organism-based, Canis lupus familiaris; details: in vivo, 336 h, dose 100-300 mg/kg/day, time 14 day
[7] = Stability in human plasma assessed as compound remaining measured at 60 mins relative to control; type: ADME, cell-free; details: read-out: Stability
[8] = Stability in human plasma assessed as compound remaining measured at 300 mins relative to control; type: ADME, cell-free; details: read-out: Stability
[9] = Toxicity in beagle dog assessed as vomiting at 100 to 300 mg/kg/day oral gavage observed for 14 days; type: organism-based, Canis lupus familiaris; details: in vivo, 336 h, dose 100-300 mg/kg/day, time 14 day
[10] = Toxicity in beagle dog assessed as dilated pupil at 100 to 300 mg/kg/day oral gavage observed for 14 days; type: organism-based, Canis lupus familiaris; details: in vivo, 336 h, dose 100-300 mg/kg/day, time 14 day
[11] = Stability in human plasma assessed as compound remaining measured at 150 mins relative to control; type: ADME, cell-free; details: read-out: Stability
[12] = Stability in human plasma assessed as compound remaining measured at 45 mins relative to control; type: ADME, cell-free; details: read-out: Stability
[13] = test system: Rattus norvegicus; experiment: Inhibition of thrombosis in anteriovenous bypassed rat at 30 mg/kg relative to control; type: functional
[14] = test system: Rattus norvegicus; experiment: Inhibition of thrombosis in anteriovenous bypassed rat at 10 mg/kg relative to control; type: functional
[15] = test system: Rattus norvegicus; experiment: Anti-platelet activity against ADP-induced platelet aggregation in rat assessed as inhibition of platelet aggregation at 3 mg/kg relative to control; type: functional
[16] = Stability in human plasma assessed as compound remaining measured at 30 mins relative to control; type: ADME, cell-free; details: read-out: Stability
[17] = test system: Rattus norvegicus; experiment: Inhibition of thrombosis in anteriovenous bypassed rat at 3 mg/kg relative to control; type: functional
[18] = Stability in human plasma assessed as compound remaining measured at 90 mins relative to control; type: ADME, cell-free; details: read-out: Stability
[19] = Toxicity in beagle dog assessed as decrease in platelet aggregation at 100 mg/kg/day oral gavage observed for 14 days; type: organism-based, Canis lupus familiaris; details: in vivo, 336 h, time 14 day
[20] = Stability in human plasma assessed as compound remaining measured at 180 mins relative to control; type: ADME, cell-free; details: read-out: Stability
[21] = Toxicity in beagle dog assessed as mydriasis at 100 mg/kg/day oral gavage observed for 14 days; type: organism-based, Canis lupus familiaris; details: in vivo, 336 h, time 14 day
[22] = Toxicity in rat assessed as bleeding time by tail cutting assay; details: in vivo
[23] = test system: Rattus norvegicus; experiment: Anti-platelet activity against ADP-induced platelet aggregation in rat assessed as inhibition of platelet aggregation at 1.5 mg/kg relative to control; type: functional
[24] = Toxicity in beagle dog assessed as abnormality in blood and biochemical index at 2000 mg/kg oral gavage observed for 14 days; type: organism-based, Canis lupus familiaris; details: in vivo, 336 h, time 14 day
[25] = Toxicity in beagle dog assessed as electrocardiogram at 100 to 300 mg/kg/day oral gavage observed for 14 days; type: organism-based, Canis lupus familiaris; details: in vivo, 336 h, dose 100-300 mg/kg/day, time 14 day
[26] = Toxicity in beagle dog assessed as swelling of hepatocyte at 100 mg/kg/day oral gavage observed for 14 days; type: organism-based, Canis lupus familiaris; details: hepatocytes, 336 h, time 14 day
[27] = Toxicity in beagle dog assessed as increase in liver weight at 100 mg/kg/day oral gavage observed for 14 days; type: organism-based, Canis lupus familiaris; details: in vivo, 336 h, time 14 day
[28] = Toxicity in beagle dog assessed as ALT level at 100 to 300 mg/kg/day oral gavage observed for 14 days; type: organism-based, Canis lupus familiaris; details: in vivo, 336 h, dose 100-300 mg/kg/day, time 14 day
[29] = Toxicity in beagle dog assessed as electrocardiogram at 2000 mg/kg oral gavage observed for 14 days; type: organism-based, Canis lupus familiaris; details: in vivo, 336 h, time 14 day
[30] = test system: Rattus norvegicus; experiment: Anti-platelet activity against ADP-induced platelet aggregation in rat assessed as inhibition of platelet aggregation at 0.75 mg/kg relative to control; type: functional
[31] = Stability in human plasma assessed as compound remaining measured at 360 mins relative to control; type: ADME, cell-free; details: read-out: Stability
[32] = species on record: Rattus norvegicus; experiment: Inhibition of thrombosis in anteriovenous bypassed rat; type: functional
[33] = Stability in human plasma assessed as compound remaining measured at 10 mins relative to control; type: ADME, cell-free; details: read-out: Stability
[34] = Toxicity in beagle dog assessed as increase in ALP at 100 mg/kg/day oral gavage observed for 14 days; type: organism-based, Canis lupus familiaris; details: in vivo, 336 h, time 14 day
[35] = Toxicity in beagle dog assessed as death at 2000 mg/kg oral gavage observed for 14 days; type: organism-based, Canis lupus familiaris; details: in vivo, 336 h, time 14 day
[36] = Stability in human plasma assessed as compound remaining measured at 20 mins relative to control; type: ADME, cell-free; details: read-out: Stability
[37] = Toxicity in beagle dog assessed as abnormality in blood and biochemical index at 100 to 300 mg/kg/day oral gavage observed for 14 days; type: organism-based, Canis lupus familiaris; details: in vivo, 336 h, dose 100-300 mg/kg/day, time 14 day
[38] = test system: Rattus norvegicus; experiment: Inhibition of thrombosis in anteriovenous bypassed rat at 1 mg/kg relative to control; type: functional
[39] = test system: Rattus norvegicus; experiment: Anti-platelet activity against ADP-induced platelet aggregation in rat assessed as inhibition of platelet aggregation at 1 mg/kg relative to control; type: functional
[40] = test system: Rattus norvegicus; experiment: Anti-platelet activity against ADP-induced platelet aggregation in rat assessed as inhibition of platelet aggregation at 4 mg/kg relative to control; type: functional
[41] = test system: Rattus norvegicus; experiment: Anti-platelet activity against ADP-induced platelet aggregation in rat assessed as inhibition of platelet aggregation at 2 mg/kg relative to control; type: functional
[42] = species on record: Rattus norvegicus; experiment: animal or person; details: Platelet, read-out: INH
Description: Anti-platelet activity against ADP-induced platelet aggregation in rat assessed as inhibition of platelet aggregation at 5 mg/kg relative to control

[43] = species on record: Rattus norvegicus; experiment: animal or person; details: Platelet, read-out: INH; remark: listed apart in the source
Description: Anti-platelet activity against ADP-induced platelet aggregation in rat assessed as inhibition of platelet aggregation at 10 mg/kg relative to control

[44] = species on record: Rattus norvegicus; experiment: animal or person; details: Platelet, read-out: INH; remark: listed apart in the source
Description: Anti-platelet activity against ADP-induced platelet aggregation in rat assessed as inhibition of platelet aggregation at 2.5 mg/kg relative to control

[45] = Toxicity in beagle dog assessed as atrophy of hepatocyte at 1000 mg/kg oral gavage single dose; type: organism-based, Canis lupus familiaris; details: hepatocytes
[46] = test system: Rattus norvegicus; experiment: Anti-platelet activity against ADP-induced platelet aggregation in rat assessed as inhibition of platelet aggregation at 0.5 mg/kg relative to control; type: functional
[47] = test system: Rattus norvegicus; experiment: Inhibition of thrombosis in anteriovenous bypassed rat at 0.3 mg/kg relative to control; type: functional
[48] = test system: Rattus norvegicus; experiment: Inhibition of thrombosis in anteriovenous bypassed rat at 0.1 mg/kg relative to control; details: read-out: INH
[49] = Toxicity in beagle dog assessed as vomiting at 1000 mg/kg oral gavage single dose; type: organism-based, Canis lupus familiaris; details: in vivo
[50] = test system: Rattus norvegicus; experiment: Anti-platelet activity against ADP-induced platelet aggregation in rat assessed as inhibition of platelet aggregation at 0.25 mg/kg relative to control; type: functional

Structure (SMILES): C/C=C/C=C/C(=O)Oc1cc2c(s1)CCN([C@H](C(=O)OC)c1ccccc1Cl)C2
- selectivity ratio [1]: 0.52
- remaining at 2 h [2]: 62.9%
- Activity [3]: Toxic
- remaining at 4 h [4]: 30%
- remaining at 5 min [5]: 93.5%
- Activity [6]: Non-Toxic
- remaining at 1 h [7]: 76.8%
- remaining at 5 h [8]: 20.9%
- Activity [9]: Non-Toxic
- Activity [10]: Non-Toxic
- remaining at 2.5 h [11]: 46.7%
- remaining at 0.75 h [12]: 83.9%
- inhibition in vivo at 30 mg/kg [13]: 68.6%
- inhibition in vivo at 10 mg/kg [14]: 52.1%
- inhibition in vivo at 3 mg/kg [15]: 85.8%
- remaining at 0.5 h [16]: 86.6%
- inhibition in vivo at 3 mg/kg [17]: 40.3%
- remaining at 1.5 h [18]: 63.8%
- Activity [19]: Toxic
- remaining at 3 h [20]: 43%
- Activity [21]: Toxic
- ED200 [22]: 0.822 mg/kg
- inhibition in vivo at 1.5 mg/kg [23]: 50.8%
- Activity [24]: Non-Toxic
- Activity [25]: Non-Toxic
- Activity [26]: Toxic
- Activity [27]: Toxic
- Activity [28]: Non-Toxic
- Activity [29]: Non-Toxic
- inhibition in vivo at 0.75 mg/kg [30]: 7%
- remaining at 6 h [31]: 14.8%
- ED50 [32]: 11.8 mg/kg
- remaining at 10 min [33]: 92.8%
- Activity [34]: Toxic
- Activity [35]: Non-Toxic
- remaining at 20 min [36]: 97.1%
- Activity [37]: Non-Toxic
- inhibition in vivo at 1 mg/kg [38]: 36.5%

Structure (SMILES): C=C/C=C/C(=O)Oc1cc2c(s1)CCN([C@H](C(=O)OC)c1ccccc1Cl)C2
- inhibition in vivo at 1 mg/kg [39]: 44%
- inhibition in vivo at 4 mg/kg [40]: 100%
- inhibition in vivo at 2 mg/kg [41]: 97.6%

Structure (SMILES): COC(=O)[C@H](c1ccccc1Cl)N1CCc2sccc2C1 [CLOPIDOGREL]
- remaining at 2 h [2]: 96%
- remaining at 5 min [5]: 106%
- inhibition in vivo at 5 mg/kg [42]: 59.7%
- remaining at 1 h [7]: 100%
- remaining at 0.75 h [12]: 101%
- inhibition in vivo at 30 mg/kg [13]: 72.6%
- inhibition in vivo at 10 mg/kg [14]: 41.5%
- remaining at 0.5 h [16]: 104%
- inhibition in vivo at 10 mg/kg [43]: 90.5%
- remaining at 1.5 h [18]: 94%
- remaining at 10 min [33]: 102%
- inhibition in vivo at 2.5 mg/kg [44]: 26.5%
- remaining at 20 min [36]: 100%

Structure (SMILES): CC(=O)Oc1cc2c(s1)CCN(C(C(=O)C1CC1)c1ccccc1F)C2 (stereo unspecified) [PRASUGREL]
- selectivity ratio [1]: 0.838
- Activity [45]: Toxic
- inhibition in vivo at 1 mg/kg [39]: 13.3%
- inhibition in vivo at 0.5 mg/kg [46]: 37.8%
- inhibition in vivo at 0.3 mg/kg [47]: 9%
- inhibition in vivo at 3 mg/kg [17]: 70.2%
- inhibition in vivo at 0.1 mg/kg [48]: 6%
- Activity [49]: Toxic
- ED200 [22]: 0.513 mg/kg
- inhibition in vivo at 0.25 mg/kg [50]: 13.3%
- ED50 [32]: 11.8 mg/kg
- inhibition in vivo at 1 mg/kg [38]: 35.7%
